# Laboratory results published in patent US6737383B1, “Herbicidal oxadiazolidines” (priority 1999, dated 2004).
# Assays:
# [1] = test system: barnyardgrass; experiment: Test A barnyardgrass; assay type: in vivo, Echinochloa crus-galli; details: 0 to 10 scale where 0 is no effect and 10 is complete control
# Outline: (§1)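 Visual injury score, 0 (no effect) to 10 (complete control), vs untreated controls at ~11 d in greenhouse. Pre: soil drench on sandy loam. Post: spray to runoff, 1–2 leaf stage.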
# [2] = test system: crabgrass; experiment: Test A crabgrass; assay type: in vivo, Digitaria spp.; details: 0 to 10 scale where 0 is no effect and 10 is complete control
# Outline: as §1
# [3] = test system: velvetleaf; experiment: Test A velvetleaf; assay type: in vivo, Abutilon theophrasti; details: 0 to 10 scale where 0 is no effect and 10 is complete control
# Outline: as §1
# [4] = test system: Alexandergrass; experiment: Test D Alexandergrass; assay type: in vivo, Brachiaria plantaginea; details: Preemergence, 0 to 100 scale
# Outline: (§2)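 Herbicide screen in the greenhouse. A non-phytotoxic solvent mixture with surfactant carried the test chemical; in pre-emergence tests it went onto the soil of pots seeded no more than a day earlier. Injury was scored by eye 14 to 21 days after application, 0 to 100.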
# [5] = test system: bermuda-grass; experiment: Test D bermudagrass; assay type: in vivo, Cynodon dactylon; details: Preemergence, 0 to 100 scale
# Outline: as §2
# [6] = test system: common ragweed; experiment: Test D common ragweed; assay type: in vivo, Ambrosia elatior; details: Preemergence, 0 to 100 scale
# Outline: as §2
# [7] = test system: common groundsel; experiment: Test D common groundsel; assay type: in vivo, Senecio vulgaris; details: Preemergence, 0 to 100 scale
# Outline: as §2
# [8] = test system: dallisgrass; experiment: Test D dallisgrass; assay type: in vivo, Paspalum dilatatum; details: Preemergence, 0 to 100 scale
# Outline: as §2
# [9] = test system: goosegrass; experiment: Test D goosegrass; assay type: in vivo, Eleusine indica; details: Preemergence, 0 to 100 scale
# Outline: as §2
# [10] = test system: guineagrass; experiment: Test D guineagrass; assay type: in vivo, Panicum maximum; details: Preemergence, 0 to 100 scale
# Outline: as §2
# [11] = test system: itchgrass; experiment: Test D itchgrass; assay type: in vivo, Rottboellia exaltata; details: Preemergence, 0 to 100 scale
# Outline: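 Scoring used a 0–100 visual injury scale, with 0 meaning no effect and 100 complete control, assessed 14–21 days after application alongside untreated pots. Preemergence treatments went onto sandy loam surfaces of separately potted seeds within a day of sowing.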
# [12] = test system: Johnson grass; experiment: Test D Johnson grass; assay type: in vivo, Sorghum halepense; details: Preemergence, 0 to 100 scale
# Outline: as §2
# [13] = test system: large crabgrass; experiment: Test D large crabgrass; assay type: in vivo, Digitaria sanguinalis; details: Preemergence, 0 to 100 scale
# Outline: as §2
# [14] = test system: pitted morningglory; experiment: Test D pitted morningglory; assay type: in vivo, Ipomoea lacunosa; details: Preemergence, 0 to 100 scale
# Outline: as §2
# [15] = test system: purple nutsedge; experiment: Test D purple nutsedge; assay type: in vivo, Cyperus rotundus; details: Preemergence, 0 to 100 scale
# Outline: as §2
# [16] = test system: sandbur; experiment: Test D sandbur; assay type: in vivo, Cenchrus echinatus; details: Preemergence, 0 to 100 scale
# Outline: as §2
# [17] = test system: Spanishneedles; experiment: Test D Spanishneedles; assay type: in vivo, Bidens bipinnata; details: Preemergence, 0 to 100 scale
# Outline: as §2
# [18] = test system: surinam grass; experiment: Test D surinam grass; assay type: in vivo, Brachiaria decumbens; details: Preemergence, 0 to 100 scale
# Outline: as §2
# [19] = test system: tall mallow; experiment: Test D tall mallow; assay type: in vivo, Malva sylvestris; details: Preemergence, 0 to 100 scale
# Outline: as §2
# [20] = test system: Green foxtail; experiment: Test D green foxtail; assay type: in vivo; details: Preemergence, 0 to 100 scale
# Outline: as §2
# [21] = test system: Green foxtail; experiment: Test D green foxtail; assay type: in vivo
# Outline: as §2
# [22] = Rate 16 g/ha, 0 no injury, 100 complete control
# [23] = Rate 32 g/ha, 0 no injury, 100 complete control
# [24] = Rate 64 g/ha, 0 no injury, 100 complete control
# [25] = Rate 125 g/ha, 0 no injury, 100 complete control
# [26] = Rate 64 g/ha, Preemergence; 0 to 100 scale, 0 no injury, 100 complete control
# [27] = Rate 125 g/ha, Preemergence; 0 to 100 scale, 0 no injury, 100 complete control
compound,measurement,setting,value
CC(C)N(C(=O)n1oc(=O)n(N(C)C)c1=O)c1ccccc1 [Compound 225],"Plant response rating, Barnyardgrass","[1]; Postemergence, Rate 1000 g/ha",9
same,"Plant response rating, Barnyardgrass","[1]; Pre-emergence, Rate 2000 g/ha",10
same,"Plant response rating, Crabgrass","[2]; Postemergence, Rate 1000 g/ha",9
same,"Plant response rating, Crabgrass","[2]; Pre-emergence, Rate 2000 g/ha",10
same,"Plant response rating, Velvetleaf","[3]; Postemergence, Rate 1000 g/ha",3
same,"Plant response rating, Velvetleaf","[3]; Pre-emergence, Rate 2000 g/ha",7
C=CCn1c(=O)on(C(=O)N(c2ccc(F)cc2F)C(C)C)c1=O [Compound 151],"Plant response rating, Alexandergrass",[4]; [22],40
same,"Plant response rating, Alexandergrass",[4]; [23],40
same,"Plant response rating, Alexandergrass",[4]; [24],98
same,"Plant response rating, Alexandergrass",[4]; [25],98
same,"Plant response rating, Alexandergrass",[4]; Rate 250 g/ha,100
same,"Plant response rating, Alexandergrass",[4]; Rate 500 g/ha,100
same,"Plant response rating, Bermudagrass",[5]; [22],90
same,"Plant response rating, Bermudagrass",[5]; [23],90
same,"Plant response rating, Bermudagrass",[5]; [24],90
same,"Plant response rating, Bermudagrass",[5]; [25],100
same,"Plant response rating, Bermudagrass",[5]; Rate 250 g/ha,100
same,"Plant response rating, Bermudagrass",[5]; Rate 500 g/ha,100
same,"Plant response rating, C. ragweed",[6]; [22],0
same,"Plant response rating, C. ragweed",[6]; [23],0
same,"Plant response rating, C. ragweed",[6]; [24],0
same,"Plant response rating, C. ragweed",[6]; [25],0
same,"Plant response rating, C. ragweed",[6]; Rate 250 g/ha,20
same,"Plant response rating, C. ragweed",[6]; Rate 500 g/ha,20
same,"Plant response rating, Com. groundsel",[7]; [22],0
same,"Plant response rating, Com. groundsel",[7]; [23],0
same,"Plant response rating, Com. groundsel",[7]; [24],0
same,"Plant response rating, Com. groundsel",[7]; [25],100
same,"Plant response rating, Com. groundsel",[7]; Rate 250 g/ha,100
same,"Plant response rating, Com. groundsel",[7]; Rate 500 g/ha,100
same,"Plant response rating, Dallisgrass",[8]; [22],100
same,"Plant response rating, Dallisgrass",[8]; [23],85
same,"Plant response rating, Dallisgrass",[8]; [24],100
same,"Plant response rating, Dallisgrass",[8]; [25],100
same,"Plant response rating, Dallisgrass",[8]; Rate 250 g/ha,100
same,"Plant response rating, Dallisgrass",[8]; Rate 500 g/ha,100
same,"Plant response rating, Goosegrass",[9]; [22],85
same,"Plant response rating, Goosegrass",[9]; [23],85
same,"Plant response rating, Goosegrass",[9]; [24],100
same,"Plant response rating, Goosegrass",[9]; [25],100
same,"Plant response rating, Goosegrass",[9]; Rate 250 g/ha,100
same,"Plant response rating, Goosegrass",[9]; Rate 500 g/ha,100
same,"Plant response rating, Guineagrass",[10]; [22],85
same,"Plant response rating, Guineagrass",[10]; [23],90
same,"Plant response rating, Guineagrass",[10]; [24],100
same,"Plant response rating, Guineagrass",[10]; [25],100
same,"Plant response rating, Guineagrass",[10]; Rate 250 g/ha,100
same,"Plant response rating, Guineagrass",[10]; Rate 500 g/ha,100
same,"Plant response rating, Itchgrass",[11]; [22],0
same,"Plant response rating, Itchgrass",[11]; [23],0
same,"Plant response rating, Itchgrass",[11]; [24],75
same,"Plant response rating, Itchgrass",[11]; [25],85
same,"Plant response rating, Itchgrass",[11]; Rate 250 g/ha,100
same,"Plant response rating, Itchgrass",[11]; Rate 500 g/ha,100
same,Plant response rating Johnsongrass,[12]; [22],0
same,Plant response rating Johnsongrass,[12]; [23],0
same,Plant response rating Johnsongrass,[12]; [24],40
same,Plant response rating Johnsongrass,[12]; [25],50
same,Plant response rating Johnsongrass,[12]; Rate 250 g/ha,50
same,Plant response rating Johnsongrass,[12]; Rate 500 g/ha,100
same,Plant response rating Large crabgrass,[13]; [22],98
same,Plant response rating Large crabgrass,[13]; [23],98
same,Plant response rating Large crabgrass,[13]; [24],100
same,Plant response rating Large crabgrass,[13]; [25],100
same,Plant response rating Large crabgrass,[13]; Rate 250 g/ha,100
same,Plant response rating Large crabgrass,[13]; Rate 500 g/ha,100
same,"Plant response rating, P. morninglory",[14]; [22],0
same,"Plant response rating, P. morninglory",[14]; [23],0
same,"Plant response rating, P. morninglory",[14]; [24],0
same,"Plant response rating, P. morninglory",[14]; [25],0
same,"Plant response rating, P. morninglory",[14]; Rate 250 g/ha,0
same,"Plant response rating, P. morninglory",[14]; Rate 500 g/ha,20
same,"Plant response rating, Purple nutsedge",[15]; [22],0
same,"Plant response rating, Purple nutsedge",[15]; [23],0
same,Purple nutsedge plant response rating,[15]; [24],0
same,Purple nutsedge plant response rating,[15]; [25],30
same,"Plant response rating, Purple nutsedge",[15]; Rate 250 g/ha,65
same,"Plant response rating, Purple nutsedge",[15]; Rate 500 g/ha,70
same,"Plant response rating, Sandbur",[16]; [22],0
same,"Plant response rating, Sandbur",[16]; [23],20
same,Sandbur plant response rating,[16]; [24],90
same,Sandbur plant response rating,[16]; [25],100
same,"Plant response rating, Sandbur",[16]; Rate 250 g/ha,100
same,"Plant response rating, Sandbur",[16]; Rate 500 g/ha,100
same,"Plant response rating, Spanishneedles",[17]; [22],0
same,"Plant response rating, Spanishneedles",[17]; [23],0
same,Spanishneedles plant response rating,[17]; [24],0
same,Spanishneedles plant response rating,[17]; [25],0
same,"Plant response rating, Spanishneedles",[17]; Rate 250 g/ha,0
same,"Plant response rating, Spanishneedles",[17]; Rate 500 g/ha,40
same,"Plant response rating, Surinam grass",[18]; [22],30
same,"Plant response rating, Surinam grass",[18]; [23],30
same,Surinam grass plant response rating,[18]; [24],85
same,Surinam grass plant response rating,[18]; [25],100
same,"Plant response rating, Surinam grass",[18]; Rate 250 g/ha,100
same,"Plant response rating, Surinam grass",[18]; Rate 500 g/ha,100
same,"Plant response rating, Tall Mallow",[19]; [22],0
same,"Plant response rating, Tall Mallow",[19]; [23],0
same,Tall Mallow plant response rating,[19]; [24],0
same,Tall Mallow plant response rating,[19]; [25],75
same,"Plant response rating, Tall Mallow",[19]; Rate 250 g/ha,85
same,"Plant response rating, Tall Mallow",[19]; Rate 500 g/ha,85
same,"Plant response rating, Green foxtail",[20]; Rate 250 g/ha,100
same,"Plant response rating, Green foxtail",[20]; Rate 500 g/ha,100
same,"Plant response rating, Green foxtail","[21]; Preemergence; Rate 16 g/ha; 0 to 100 scale, 0 no injury, 100 complete control",100
same,"Plant response rating, Green foxtail","[21]; Preemergence; Rate 32 g/ha; 0 to 100 scale, 0 no injury, 100 complete control",100
same,"Plant response rating, Green foxtail","[21]; Rate 16 g/ha; Preemergence; 0 to 100 scale, 0 no injury, 100 complete control",100
same,"Plant response rating, Green foxtail","[21]; Rate 32 g/ha; Preemergence; 0 to 100 scale, 0 no injury, 100 complete control",75
same,Green foxtail plant response rating,[21]; [26],100
same,"Plant response rating, Green foxtail",[21]; [26],100
same,Green foxtail plant response rating,[21]; [27],100
same,"Plant response rating, Green foxtail",[21]; [27],100
same,"Plant response rating, Green foxtail",[21]; Rate 250 g/ha; Preemergence; 0 to 100 scale,100
same,"Plant response rating, Green foxtail","[21]; Rate 500 g/ha, Preemergence; 0 to 100 scale",100
Cc1cccc(Cl)c1-n1c(=O)on(C(=O)N(c2ccc(F)cc2)C(C)C)c1=O [Compound 53],"Plant response rating, Barnyardgrass","[1]; Postemergence, Rate 1000 g/ha",3
same,"Plant response rating, Barnyardgrass","[1]; Pre-emergence, Rate 2000 g/ha",8
same,"Plant response rating, Crabgrass","[2]; Postemergence, Rate 1000 g/ha",6
same,"Plant response rating, Crabgrass","[2]; Pre-emergence, Rate 2000 g/ha",9
same,"Plant response rating, Velvetleaf","[3]; Postemergence, Rate 1000 g/ha",1
same,"Plant response rating, Velvetleaf","[3]; Pre-emergence, Rate 2000 g/ha",0
CCc1cccc(C)c1-n1c(=O)on(C(=O)N(c2ccc(F)cc2)C(C)C)c1=O [Compound 52],"Plant response rating, Barnyardgrass","[1]; Postemergence, Rate 1000 g/ha",5
same,"Plant response rating, Barnyardgrass","[1]; Pre-emergence, Rate 2000 g/ha",9
same,"Plant response rating, Crabgrass","[2]; Postemergence, Rate 1000 g/ha",8
same,"Plant response rating, Crabgrass","[2]; Pre-emergence, Rate 2000 g/ha",10
same,"Plant response rating, Velvetleaf","[3]; Postemergence, Rate 1000 g/ha",1
same,"Plant response rating, Velvetleaf","[3]; Pre-emergence, Rate 2000 g/ha",0
